ChEMBL document CHEMBL1201862, “PubChem BioAssay data set” (2004)
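Interpolation was linear, between the two tested concentrations surrounding the appropriate level; five concentrations were tested over 48 hours in 96-well plates. Abbreviation: GI50, concentration required for 50% inhibition of growth.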 The source made the active and inactive calls. Cut-off read from the data, not from the text of the source: active = GI50 up to about 1.1 µM and inactive = higher.

What was measured:
Experiment in all cases: NCI anticancer screen, dose series, 48 h
SK-MEL-2 = tested on: SK-MEL-2
SR = tested on: SR
MOLT-4 = tested on: MOLT-4
OVCAR-3 = tested on: OVCAR-3
SK-OV-3 = tested on: SK-OV-3
NCI-H23 = tested on: NCI-H23
HOP-92 = tested on: HOP-92
SF-268 = tested on: SF-268
786-0 = tested on: 786-0
K562 = tested on: K562
OVCAR-4 = tested on: OVCAR-4
OVCAR-8 = tested on: OVCAR-8
SF-295 = tested on: SF-295
EKVX = tested on: EKVX
SN12C = tested on: SN12C
HOP-62 = tested on: HOP-62
A498 = tested on: A498

Measured: GI50

COc1cc(C=C2C(=O)OC(C)(C)OC2=O)cc(OC)c1OC
inactive: SK-MEL-2 > 100 µM | SR > 100 µM | MOLT-4 > 100 µM | OVCAR-3 > 100 µM | SK-OV-3 > 100 µM | NCI-H23 > 100 µM | HOP-92 > 100 µM | SF-268 > 100 µM | 786-0 > 100 µM | K562 > 100 µM | OVCAR-4 > 100 µM | OVCAR-8 > 100 µM | SF-295 > 100 µM | EKVX > 100 µM | SN12C > 100 µM

COC(=O)c1nc(-c2ccc(Cl)c(Cl)c2)nc2ccccc12
inactive: SK-MEL-2 71.8 µM | MOLT-4 > 100 µM | OVCAR-3 14.5 µM | SK-OV-3 9.91 µM | NCI-H23 57.9 µM | SF-268 6.81 µM | 786-0 21.6 µM | K562 > 100 µM | OVCAR-4 7.83 µM | OVCAR-8 14.5 µM | SF-295 12 µM | EKVX > 100 µM | HOP-62 14.3 µM | A498 27.4 µM | SN12C > 100 µM

O=C1C=C(c2[nH]c3ccccc3c2C2=CC(=O)c3ccccc3C2=O)C(=O)c2ccccc21
inactive: SR 20.6 µM | MOLT-4 15 µM | OVCAR-3 21.6 µM | SK-OV-3 54.1 µM | NCI-H23 41.3 µM | SF-268 34.4 µM | 786-0 > 100 µM | K562 22.3 µM | OVCAR-4 33.7 µM | OVCAR-8 43.8 µM | SF-295 36.1 µM | EKVX 46.5 µM | A498 > 100 µM

CN(C)CCC(O)(c1ccccc1)C(O)(CCN(C)C)c1ccccc1 (stereo unspecified)
inactive: SK-MEL-2 > 100 µM | MOLT-4 > 100 µM | OVCAR-3 > 100 µM | SK-OV-3 > 100 µM | NCI-H23 > 100 µM | SF-268 > 100 µM | 786-0 > 100 µM | K562 48.9 µM | OVCAR-4 > 100 µM | OVCAR-8 > 100 µM | SF-295 53.7 µM | EKVX > 100 µM | HOP-62 > 100 µM | A498 > 100 µM | SN12C > 100 µM

COC(=O)C(Cl)=C1CC1
inactive: SK-MEL-2 32.1 µM | MOLT-4 17.7 µM | OVCAR-3 26.7 µM | SK-OV-3 > 100 µM | NCI-H23 45.2 µM | HOP-92 13.3 µM | SF-268 92.5 µM | 786-0 26.1 µM | K562 22.3 µM | OVCAR-4 34.8 µM | OVCAR-8 30.3 µM | SF-295 > 100 µM | EKVX > 10 µM | HOP-62 > 100 µM | A498 > 100 µM | SN12C 41.8 µM

NCCCOc1ccc([N+](=O)[O-])cc1Cl
inactive: SK-MEL-2 > 100 µM | SR > 100 µM | MOLT-4 > 100 µM | OVCAR-3 > 100 µM | NCI-H23 > 100 µM | HOP-92 68.9 µM | SF-268 > 100 µM | 786-0 > 100 µM | K562 85.9 µM | OVCAR-4 > 100 µM | OVCAR-8 > 100 µM | SF-295 > 100 µM | HOP-62 71.1 µM

ClC(Cl)=C(Cl)C1(Cl)CC1COCc1ccccc1 (stereo unspecified)
inactive: SK-MEL-2 17.8 µM | MOLT-4 20.9 µM | OVCAR-3 22.6 µM | SK-OV-3 39.4 µM | NCI-H23 25.2 µM | HOP-92 15.3 µM | SF-268 43.3 µM | 786-0 44.3 µM | K562 30.2 µM | OVCAR-4 17.6 µM | OVCAR-8 33.1 µM | SF-295 25.5 µM | EKVX 26.1 µM | HOP-62 25.9 µM | A498 52.4 µM | SN12C 39.8 µM

O=C(O)C(CO)NC(=O)n1c2ccccc2c2ccccc21 (stereo unspecified)
inactive: SK-MEL-2 > 100 µM | SR > 100 µM | MOLT-4 > 100 µM | OVCAR-3 > 100 µM | SK-OV-3 > 100 µM | NCI-H23 > 100 µM | HOP-92 > 100 µM | SF-268 > 100 µM | 786-0 > 100 µM | K562 > 100 µM | OVCAR-8 > 100 µM | SF-295 > 100 µM | EKVX > 100 µM | HOP-62 > 100 µM | SN12C > 100 µM

c1ccc2c(c1)CCc1cc3cc4c(nc3nc1-2)-c1ccccc1CC4
inactive: SR > 100 µM | MOLT-4 > 100 µM | OVCAR-3 > 100 µM | SK-OV-3 > 100 µM | NCI-H23 > 100 µM | SF-268 83 µM | 786-0 83 µM | K562 > 100 µM | OVCAR-8 > 100 µM | SF-295 > 100 µM | EKVX > 100 µM | HOP-62 > 100 µM | SN12C > 100 µM

COc1cc2c(cc1OCc1ccccc1)CNCC2
inactive: SK-MEL-2 > 100 µM | MOLT-4 > 100 µM | OVCAR-3 > 100 µM | SK-OV-3 > 100 µM | NCI-H23 > 100 µM | HOP-92 23.6 µM | SF-268 > 100 µM | 786-0 > 100 µM | K562 > 100 µM | OVCAR-4 > 100 µM | OVCAR-8 > 100 µM | SF-295 > 100 µM | EKVX > 100 µM | HOP-62 > 100 µM | A498 > 100 µM | SN12C > 100 µM

NC(=S)N1N=C2CCCCCC[C@@H]2[C@H]1c1ccccc1
inactive: SK-MEL-2 64.6 µM | MOLT-4 31.8 µM | OVCAR-3 39.3 µM | SK-OV-3 > 100 µM | NCI-H23 40.2 µM | SF-268 > 100 µM | 786-0 67 µM | K562 32.8 µM | OVCAR-8 44.5 µM | SF-295 35.3 µM | EKVX 27.7 µM | HOP-62 > 100 µM | A498 75 µM | SN12C 86.1 µM

Cc1cc(Cl)ccc1NC(=O)C1C(=O)N(c2ccc(Cl)cc2C)C(=O)/C1=N\NC(N)=S (stereo unspecified)
inactive: MOLT-4 19.2 µM | OVCAR-3 32.8 µM | NCI-H23 19.8 µM | HOP-92 23.7 µM | SF-268 35.6 µM | 786-0 32.6 µM | K562 23.6 µM | OVCAR-4 18.5 µM | OVCAR-8 41.9 µM | SF-295 29.9 µM | EKVX 22.6 µM | HOP-62 21.3 µM | A498 23.6 µM | SN12C 27.4 µM

O=C1C(Cl)=C(NCCOCCO)C(=O)c2c(O)ccc(O)c21
inactive: SK-MEL-2 8.67 µM | SR 6.53 µM | MOLT-4 5.19 µM | SK-OV-3 17.3 µM | NCI-H23 1.88 µM | HOP-92 24.3 µM | 786-0 4.97 µM | K562 2.65 µM | OVCAR-4 2.37 µM | OVCAR-8 7.36 µM | SF-295 11.6 µM | HOP-62 20 µM | SN12C 11 µM

CCCCN(CCCC)C(=O)C(=O)C(C)C(=O)CC (stereo unspecified)
inactive: SK-MEL-2 > 100 µM | MOLT-4 > 100 µM | OVCAR-3 > 100 µM | SK-OV-3 > 100 µM | NCI-H23 > 100 µM | HOP-92 > 100 µM | SF-268 > 100 µM | 786-0 > 100 µM | K562 > 100 µM | OVCAR-4 > 100 µM | OVCAR-8 > 100 µM | SF-295 > 100 µM | HOP-62 > 100 µM | SN12C > 100 µM

O=C(Nc1cc(Cl)ccc1Cl)c1cc2cccc(Cl)c2oc1=O
inactive: MOLT-4 > 100 µM | OVCAR-3 > 100 µM | SK-OV-3 > 100 µM | NCI-H23 > 100 µM | 786-0 > 100 µM | K562 > 100 µM | OVCAR-8 47.1 µM | SF-295 > 100 µM | EKVX > 100 µM | HOP-62 > 100 µM | SN12C > 100 µM

CC1=C(C(=O)Nc2ccccc2C)C(c2ccco2)C(C(=O)Nc2ccccc2C)=C(C)N1C
inactive: SK-MEL-2 > 100 µM | SR 72.8 µM | MOLT-4 51.2 µM | OVCAR-3 > 100 µM | SK-OV-3 > 100 µM | NCI-H23 > 100 µM | HOP-92 > 100 µM | SF-268 > 100 µM | 786-0 > 100 µM | K562 85.5 µM | OVCAR-4 > 100 µM | OVCAR-8 > 100 µM | SF-295 > 100 µM | EKVX > 100 µM | HOP-62 > 100 µM | SN12C > 100 µM

C/C(=N\NS(=O)(=O)c1ccc(C)cc1)c1cc2ccccc2n1C
inactive: SK-MEL-2 > 100 µM | SR > 100 µM | MOLT-4 > 100 µM | NCI-H23 > 100 µM | SF-268 66.2 µM | 786-0 68.7 µM | K562 > 100 µM | OVCAR-4 > 100 µM | OVCAR-8 > 100 µM | SF-295 > 100 µM | EKVX 74.3 µM | HOP-62 > 100 µM | A498 > 100 µM | SN12C 24.2 µM

CCc1cccc(C)c1NC(C)=O
inactive: SK-MEL-2 > 100 µM | MOLT-4 > 100 µM | OVCAR-3 > 100 µM | SK-OV-3 > 100 µM | NCI-H23 > 100 µM | 786-0 > 100 µM | K562 > 100 µM | OVCAR-4 > 100 µM | OVCAR-8 > 100 µM | SF-295 > 100 µM | EKVX > 100 µM | HOP-62 > 100 µM | A498 > 100 µM

O=C(c1cccs1)N(C(=S)N1CCN(c2ccccn2)CC1)c1ccccc1
inactive: SK-MEL-2 57.4 µM | SR > 100 µM | MOLT-4 48.4 µM | OVCAR-3 > 100 µM | SK-OV-3 > 100 µM | NCI-H23 > 100 µM | HOP-92 > 100 µM | SF-268 87.3 µM | 786-0 > 100 µM | K562 > 100 µM | OVCAR-4 > 100 µM | OVCAR-8 81.7 µM | SF-295 80.4 µM | HOP-62 > 100 µM | SN12C > 100 µM
